Data as given in PubChem BioAssay AID2060898 (Molecular Pharmacology Branch, DTP, NCI, 2025).

System: 616215-338-R-J1-PDC complex spheroid viability
Assay: Anticancer human tumor 616215-338-R-J1-PDC patient-derived colon adenocarcinoma cell line growth inhibition [RAS]
Settings: for IC50: curve of first compound; for viability, T/C: stronger effect = lower value; active = viability on the fitted dose curve at most 10% of control; inactive = the rest
In short: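 Tumour cells grown as complex spheroids with HUVEC endothelial cells and mesenchymal stem cells, treated with RAS pathway inhibitor combinations. Each agent spans half-log steps from near clinical Cmax, or 10 microM where Cmax is unknown.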

[1] = second compound 0.000949 µM, first compound 0.0316 µM
[2] = second compound 0.000949 µM, first compound 0.1 µM
[3] = second compound 0.000949 µM, first compound 0.316 µM
[4] = second compound 0.000949 µM, first compound 1 µM
[5] = second compound 0.003 µM, first compound 0.0316 µM
[6] = second compound 0.003 µM, first compound 0.1 µM
[7] = second compound 0.003 µM, first compound 0.316 µM
[8] = second compound 0.003 µM, first compound 1 µM
[9] = second compound 0.00949 µM, first compound 0.0316 µM
[10] = second compound 0.00949 µM, first compound 0.1 µM
[11] = second compound 0.00949 µM, first compound 0.316 µM
[12] = second compound 0.00949 µM, first compound 1 µM
[13] = second compound 0.03 µM, first compound 0.0316 µM
[14] = second compound 0.03 µM, first compound 0.1 µM
[15] = second compound 0.03 µM, first compound 0.316 µM
[16] = second compound 0.03 µM, first compound 1 µM
[17] = second compound 0.0949 µM, first compound 0.0316 µM
[18] = second compound 0.0949 µM, first compound 0.1 µM
[19] = second compound 0.0949 µM, first compound 0.316 µM
[20] = second compound 0.0949 µM, first compound 1 µM
[21] = second compound 0.3 µM, first compound 0.0316 µM
[22] = second compound 0.3 µM, first compound 0.1 µM
[23] = second compound 0.3 µM, first compound 0.316 µM
[24] = second compound 0.3 µM, first compound 1 µM
[25] = second compound 0.000949 µM, first compound 3.16 µM
[26] = second compound 0.000949 µM, first compound 10 µM
[27] = second compound 0.003 µM, first compound 3.16 µM
[28] = second compound 0.003 µM, first compound 10 µM
[29] = second compound 0.00949 µM, first compound 3.16 µM
[30] = second compound 0.00949 µM, first compound 10 µM
[31] = second compound 0.03 µM, first compound 3.16 µM
[32] = second compound 0.03 µM, first compound 10 µM
[33] = second compound 0.0949 µM, first compound 3.16 µM
[34] = second compound 0.0949 µM, first compound 10 µM
[35] = second compound 0.3 µM, first compound 3.16 µM
[36] = second compound 0.3 µM, first compound 10 µM
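Note: spheroids exposed to agents for seven days before viability readout.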
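Throughout, for viability, T/C: 100% = DMSO vehicle control viability.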

CCN1CCN(Cc2ccc(Nc3ncc(F)c(-c4cc(F)c5nc(C)n(C(C)C)c5c4)n3)nc2)CC1 + CCn1c(-c2cc(N3CCN(C)CC3)cnc2C(C)OC)c2c3cc(ccc31)-c1csc(n1)CC(NC(=O)C1CC1C)C(=O)N1CCCC(N1)C(=O)OCC(C)(C)C2
> 1 µM: IC50 (second compound 0.000949 µM)
< 0.00316 µM: IC50 (second compound 0.03 µM) | IC50 (second compound 0.0949 µM) | IC50 (second compound 0.3 µM)
0.695 µM: IC50 (second compound 0.003 µM)
inactive: viability, T/C (second compound 0.000949 µM, first compound 0.00316 µM) 102% | viability, T/C (second compound 0.000949 µM, first compound 0.01 µM) 108% | viability, T/C [1] 110% | viability, T/C [2] 123% | viability, T/C [3] 130% | viability, T/C [4] 57.2% | viability, T/C (second compound 0.003 µM, first compound 0.00316 µM) 104% | viability, T/C (second compound 0.003 µM, first compound 0.01 µM) 112% | viability, T/C [5] 111% | viability, T/C [6] 120% | viability, T/C [7] 75.3% | viability, T/C [8] 38.4% | viability, T/C (second compound 0.00949 µM, first compound 0.00316 µM) 82.2% | viability, T/C (second compound 0.00949 µM, first compound 0.01 µM) 64% | viability, T/C [9] 59.9% | viability, T/C [10] 51.3% | viability, T/C [11] 49.5% | viability, T/C [12] 26.6% | viability, T/C (second compound 0.03 µM, first compound 0.00316 µM) 51% | viability, T/C (second compound 0.03 µM, first compound 0.01 µM) 38.1% | viability, T/C [13] 39.4% | viability, T/C [14] 32.5% | viability, T/C [15] 33.4% | viability, T/C [16] 27.5% | viability, T/C (second compound 0.0949 µM, first compound 0.00316 µM) 33.2% | viability, T/C (second compound 0.0949 µM, first compound 0.01 µM) 32.3% | viability, T/C [17] 26.7% | viability, T/C [18] 25.8% | viability, T/C [19] 34.5% | viability, T/C [20] 29.8% | viability, T/C (second compound 0.3 µM, first compound 0.00316 µM) 34.5% | viability, T/C (second compound 0.3 µM, first compound 0.01 µM) 32.2% | viability, T/C [21] 30.3% | viability, T/C [22] 33.1% | viability, T/C [23] 35.9% | viability, T/C [24] 25.3%
0.112 µM: IC50 (second compound 0.00949 µM)

Cc1nc(N2CCC3(CC2)COC(C)C3N)c(CO)nc1Sc1ccnc(N)c1Cl (stereo unspecified) + CCn1c(-c2cc(N3CCN(C)CC3)cnc2C(C)OC)c2c3cc(ccc31)-c1csc(n1)CC(NC(=O)C1CC1C)C(=O)N1CCCC(N1)C(=O)OCC(C)(C)C2
< 0.0316 µM: IC50 (second compound 0.03 µM) | IC50 (second compound 0.0949 µM) | IC50 (second compound 0.3 µM)
inactive: viability, T/C [1] 123% | viability, T/C [2] 106% | viability, T/C [3] 85.6% | viability, T/C [4] 75.6% | viability, T/C [25] 63.1% | viability, T/C [26] 61.9% | viability, T/C [5] 118% | viability, T/C [6] 92.5% | viability, T/C [7] 66.4% | viability, T/C [8] 49.7% | viability, T/C [27] 54.9% | viability, T/C [28] 39.1% | viability, T/C [9] 71% | viability, T/C [10] 55.4% | viability, T/C [11] 46.9% | viability, T/C [12] 42.6% | viability, T/C [29] 44.2% | viability, T/C [30] 38% | viability, T/C [13] 43.8% | viability, T/C [14] 47.5% | viability, T/C [15] 46.9% | viability, T/C [16] 39.9% | viability, T/C [31] 45.5% | viability, T/C [32] 36.6% | viability, T/C [17] 38.9% | viability, T/C [18] 37.5% | viability, T/C [19] 40.6% | viability, T/C [20] 40.3% | viability, T/C [33] 44.2% | viability, T/C [34] 46.6% | viability, T/C [21] 36.7% | viability, T/C [22] 40.9% | viability, T/C [23] 47.3% | viability, T/C [24] 39.1% | viability, T/C [35] 44.7% | viability, T/C [36] 37.1%
1.67 µM: IC50 (second compound 0.003 µM)
> 10 µM: IC50 (second compound 0.000949 µM)
0.214 µM: IC50 (second compound 0.00949 µM)

NC1c2ccccc2OC12CCN(c1cnc3c(N4CCCc5ncccc54)n[nH]c3n1)CC2 (stereo unspecified) + CCn1c(-c2cc(N3CCN(C)CC3)cnc2C(C)OC)c2c3cc(ccc31)-c1csc(n1)CC(NC(=O)C1CC1C)C(=O)N1CCCC(N1)C(=O)OCC(C)(C)C2
inactive: viability, T/C [1] 81.9% | viability, T/C [2] 69.7% | viability, T/C [3] 60% | viability, T/C [4] 55.5% | viability, T/C [25] 51.2% | viability, T/C [26] 40.2% | viability, T/C [5] 73.5% | viability, T/C [6] 60.6% | viability, T/C [7] 44.6% | viability, T/C [8] 41.9% | viability, T/C [27] 35.2% | viability, T/C [28] 37.1% | viability, T/C [9] 49.4% | viability, T/C [10] 48.4% | viability, T/C [11] 42.9% | viability, T/C [12] 42.2% | viability, T/C [29] 36.4% | viability, T/C [30] 31.1% | viability, T/C [13] 38.7% | viability, T/C [14] 34.9% | viability, T/C [15] 33.9% | viability, T/C [16] 40.1% | viability, T/C [31] 35.2% | viability, T/C [32] 30.5% | viability, T/C [17] 35.9% | viability, T/C [18] 42.6% | viability, T/C [19] 47.9% | viability, T/C [20] 42.2% | viability, T/C [33] 44.2% | viability, T/C [34] 34.6% | viability, T/C [21] 51.7% | viability, T/C [22] 40.5% | viability, T/C [23] 44.6% | viability, T/C [24] 41.1% | viability, T/C [35] 45.3% | viability, T/C [36] 32.4%
< 0.0316 µM: IC50 (second compound 0.00949 µM) | IC50 (second compound 0.03 µM) | IC50 (second compound 0.0949 µM) | IC50 (second compound 0.3 µM)
2.24 µM: IC50 (second compound 0.000949 µM)
0.228 µM: IC50 (second compound 0.003 µM)
